The record followed here is patent publication US20240197724A1, “THERAPEUTIC AGENT FOR GAIT DISTURBANCE” (NIPPON SHINYAKU CO., LTD., priority 2021, published 2024).

For data set [1], the system named is FeCl3-induced thrombus in femoral artery. Briefly: Antithrombotic effect in rat FeCl3-induced thrombus model. It is filed as in vivo. Conditions: male Wistar rats. The procedure: Methylcellulose (METOLOSE, SM-400, Shin-Etsu Chemical Co., Ltd.) was dissolved in distilled water, to prepare a 0.5 w/v% methylcellulose aqueous solution. The 0.5 w/v% methylcellulose aqueous solution was added to the compound A, to prepare a 10 mg/mL suspension of compound A in the 0.5 w/v% methylcellulose aqueous solution. • (b) Beraprost Sodium The 0.5 w/v% methylcellulose aqueous solution was added to beraprost sodium, to prepare a 1.0 mg/mL aqueous solution of beraprost sodium in the 0.5 w/v% methylcellulose aqueous solution. • (c) Cilostazol The 0.5 w/v% methylcellulose aqueous solution was added to cilostazol, to prepare a 150 or 50 mg/mL suspension of cilostazol. Urethane (Wako Pure Chemical Industries, Ltd.) was dissolved in saline (Otsuka Pharmaceutical Factory, Inc.) to prepare a solution of 0.3 g/mL. The urethane saline solution was subcutaneously administered to rats at 4 mL per 1 kg of body weight (1.2 g/kg) to anesthetize them. […] Male Wistar rats aged 9 to 10 weeks were used as rats. The abdomen of the rat was incised to expose the duodenum, and drugs were injected 2 to 3 mm downstream from the vicinity of the gastric-duodenal boundary using a 26G injection needle and syringe. The compound A and beraprost sodium were administered at a dose of 1 mL/kg, and cilostazol was administered at a dose of 2 mL/kg. The skin on the right thigh of the rat was incised to expose the femoral artery, and the vein and nerve were dissected. A parafilm was placed under the dissected femoral artery to completely separate the femoral artery, vein, and nerve. A laser Doppler blood flowmeter (ALF21, Advance) probe was placed on the femoral artery to start measuring the blood flow (mL/min/g). 60 minutes after the administration for the compound A-administered group, 30 minutes after the administration for the beraprost sodium-administered group, and 120 minutes after the administration for the cilostazol-administered group, a filter paper (2 mm×5 mm) impregnated with a 10 w/w% FeCl3 aqueous solution was placed on the femoral artery, and changes in blood flow were measured using a biometric data processing system (FLO-WB, Omega Wave Co., Ltd.) and recorded.

Data set [2] has as its system gait disturbance in patient with arteriosclerosis obliterans. Briefly: Improvement of gait disturbance in patients with arteriosclerosis obliterans (placebo-controlled, double-blind study). Conditions: Japanese patients, 0.1 to 1.6 mg twice a day for 24 to 36 weeks. It is filed as in vivo, human. The procedure:
As a placebo-controlled, double-blind comparative study, Japanese patients with arteriosclerosis obliterans (selected by resting ABI, or the like) received placebo or selexipag (which is compound A) at 0.1 to 1.6 mg twice a day for 24 to 36 weeks (dose adjustment period: 8 to 20 weeks, dose maintenance period: 16 weeks).

The test system of data set [3] is ischemic gait disturbance caused by ligation of the iliac artery. Briefly: Gait improvement in rat ischemic gait disturbance model (iliac artery ligation, treadmill). Conditions: male Wistar rats, 3 mg/kg orally twice a day for 9 days from one day after surgery; measured 3, 7 and 10 days after surgery; p<0.01 vs control. It counts as in vivo. The procedure:
Wistar rats (male, 7 week-old) (available from CHARLES RIVER LABORATORIES JAPAN, INC.) were subjected to gait training using a treadmill (MK-680, available from Muromachi Kikai Co., Ltd.) for three consecutive days-6 days before surgery, 5 days before surgery, and 4 days before surgery. On the day before surgery, the pre-value of the walking distance was measured, the animals were divided into groups, and sham surgery or iliac artery ligation surgery described in i) below was performed. […] Walking time was measured 3 days, 7 days and 10 days after the surgery. Based on the measured walking time, the walking distance was calculated. • i) Method of Iliac Artery Ligation Surgery Rats were anesthetized by intraperitoneal administration of 50 mg/kg pentobarbital sodium (Somnopentyl®, Schering-Plough Animal Health). […] The ligation of the iliac artery was performed by the data manager and this information was not disclosed to the gait tester until the study was completed. • ii) Walking Time Measurement Method The speed of the treadmill belt was increased from 15 m/min to 35 m/min by increments of 5 m/min in each 3 minutes, and the time the rat got on the electrical stimulation plate at the rear end of the belt was recorded as the dropout time. […] After the measurement, the dropout time was recorded in the gait test record. […]

Consider `CC#CCC(C)[C@H](O)/C=C/[C@@H]1[C@H]2c3cccc(CCCC(=O)O)c3O[C@H]2C[C@H]1O` (mixture of isomers) [beraprost sodium], for which the vascular occlusion time entry in data set [1] (0.3 mg/kg intraduodenal, 30 minutes before induction) is “not prolonged”; in data set [1] (1 mg/kg intraduodenal, administration 30 minutes before induction, vehicle control about 12 to 15 minutes) it was “about 43 minutes”. In data set [1] (0.3 mg/kg intraduodenal, observed over time), the “reduction in blood pressure” value is 25%.
Take `O=C1CCc2cc(OCCCCc3nnnn3C3CCCCC3)ccc2N1` [cilostazol]: in data set [1] (150 or 50 mg/mL suspension at 2 mL/kg intraduodenal, 120 minutes before induction), the vascular occlusion time entry was “Neither dose of cilostazol prolonged the occlusion time”.
For `CC(C)N(CCCCOCC(=O)NS(C)(=O)=O)c1cnc(-c2ccccc2)c(-c2ccccc2)n1` [compound A, 2-{4-[N-(5,6-diphenylpyrazine-2-yl)-N-isopropylamino]butyloxy}-N-(methylsulfonyl) acetamide], in data set [1] (10 mg/kg intraduodenal, administration 60 minutes before induction, vehicle control about 12 to 15 minutes), the vascular occlusion time result is on record as “about 22 minutes”. The “improvement of gait disturbance (treadmill, maximum walking time, Gartner method)” value in data set [2] is listed as “Improvement of patient's gait disturbance was confirmed”. Moreover, in data set [3], the “improvement of gait disturbance (walking distance, FIG. 1)” value is on record as “significantly improved gait disturbance”.
